Data published in PMC8802628, “Selective activation of PFKL suppresses the phagocytic oxidative burst” (Cell, 2021).

Key:
[1] = target: T1, 14-3-3 protein beta/alpha (YWHAB) (Homo sapiens, UniProt P31946); experiment: Photoaffinity labeling pull-down (Data S1); assay type: binding; settings: Comparison PALP1_NA11-PALP1
T1 construct: endogenous in cells; host or cells: human blood leukocytes, labelled live
Description: Buffy coats (100 mL) were diluted with ice-cold water (540 mL) for 30 s to lyse red blood cells. Following addition of 10 x HBSS buffer (50 mL) leukocytes were pelleted for 3 min at 300 x g, then washed twice in D-PBS and resuspended in RPMI medium. Cells (2 × 10^7) were plated on 15-cm dishes in DMSO vehicle, 1 μM PALP1 or 1 μM PALP6 for 30 min at 37°C. For competition, 10 μM NA-11 was added for 15 min, and then 1 μM PALP1 was added for an additional 30 min. To crosslink the photoaffinity probe, cells were UV-irradiated (High intensity mercury spot lamp, 100W, 365 nm, UVP) in RPMI for 5 min on ice. Cells were lysed in 200 μL 10 mM Tris pH 7.5, 150 mM NaCl, 1% NP-40, 2.5 mM MgCl2, 0.5 mM CaCl2, 2% glycerol, 10 μg/mL DNase-I, and 1 x EDTA-free Protease inhibitor cocktail. Lysates from 5 plates for each condition were pooled and incubate 10 min on ice.
Biotin-DADPS tagging, biotin-streptavidin affinity purification, and on-bead digestion were performed as described ([Hewings et al., 2018]). Briefly, lysates were cleared by centrifugation and the lysate concentration adjusted to 5 mg/mL. Streptavidin Ultralink Resin (100 μL of 50% slurry, Pierce) was washed twice with PBS and mixed with 1 mL of lysate for 30 min at room temperature. […]
For the classical TPP, quantitative data from each temperature were used to generate a thermal titration curve and calculate a melting point. […]

[2] = target: T2, GSDMD (Homo sapiens, UniProt P57764); experiment: TR-FRET liposome cargo release (GSDMD pore formation); assay type: biochemical; settings: 10 μM
T2 sequence (P57764 1-484): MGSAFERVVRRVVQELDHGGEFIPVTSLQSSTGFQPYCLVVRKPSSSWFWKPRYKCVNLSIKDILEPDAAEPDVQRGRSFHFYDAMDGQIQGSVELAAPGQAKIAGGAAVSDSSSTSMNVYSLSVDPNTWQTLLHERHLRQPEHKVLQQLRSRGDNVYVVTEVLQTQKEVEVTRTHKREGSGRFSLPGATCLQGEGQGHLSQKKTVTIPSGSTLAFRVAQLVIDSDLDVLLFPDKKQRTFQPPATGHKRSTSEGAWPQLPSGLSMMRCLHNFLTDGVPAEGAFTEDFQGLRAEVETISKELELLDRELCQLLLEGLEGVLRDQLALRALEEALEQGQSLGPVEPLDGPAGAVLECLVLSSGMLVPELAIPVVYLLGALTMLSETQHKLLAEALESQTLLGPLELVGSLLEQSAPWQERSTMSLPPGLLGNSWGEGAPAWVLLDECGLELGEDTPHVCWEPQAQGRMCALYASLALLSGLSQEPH
Description: GSDMD-dependent liposome cargo release was conducted by Confluence Discovery Technologies with modifications to the procedure described previously ([Aglietti et al., 2016]). Briefly, liposomes with an encapsulated cargo of europium-chelate conjugated biotin were formed from a lipid mixture of DOPC:DOPE (1:1). 0.15 mg/mL of cargo-loaded liposomes were mixed with 0.3 μM of recombinant GSDMD and incubated with 10 μM LDC7559, 10 μM disulfiram or DMSO vehicle. 0.15 μM caspase-4 and 50 nM streptavidin-Alexa Fluor 647 were added and TR-FRET was read over 1 h using a PHERAstar FSX Microplate Reader (BMG Labtech) equipped with a TR-FRET module.

T1 sequence (P31946 whole entry): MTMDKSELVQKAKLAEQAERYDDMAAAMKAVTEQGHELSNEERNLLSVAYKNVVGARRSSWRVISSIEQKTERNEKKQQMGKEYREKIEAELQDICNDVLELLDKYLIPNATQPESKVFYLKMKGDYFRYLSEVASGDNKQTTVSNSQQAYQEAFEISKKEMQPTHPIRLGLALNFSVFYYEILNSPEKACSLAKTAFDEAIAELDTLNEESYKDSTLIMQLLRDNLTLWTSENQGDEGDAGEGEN

Row | SMILES | log2FC [1] | liposome permeabilization by GSDMD pore-forming fragment [2]
1 | CC(=O)Nc1ccc2c(c1)OCc1cc(-c3ccccc3C#CCCCO)nn1C2 [NA-11] | 0.13 | 
2 | COc1ccccc1-c1cc2n(n1)Cc1ccc(NC(C)=O)cc1OC2 [LDC7559, reference compound] |  | nor did it prevent the GSDMD pore-forming fragment from permeabilizing liposomes
